Where “and” joins values, the source holds several entries; their conditions need not be identical. Equal values may be shown once. Entries after “also recorded” stand apart in the source; their conditions may differ.
Assays:
[1] = Oxygen radical absorbance capacity by fluorescence (ORAC-FL); settings: mean ± SD
Description: Trolox was used as standard, fluorescein as fluorescent probe and 2,2′-azobis(2-amidinopropane) dihydrochloride (AAPH) as the peroxyl radical source. Ferulic acid was used as a positive control.
The antioxidant power of BCPOs was determined following the ORAC-FL method using fluorescein as the fluorescent probe. (±)-6-Hydroxy-2,5,7,8-tetramethylchromane-2-carboxylic acid (Trolox), fluorescein (FL) and AAPH were bought from Sigma-Aldrich (Saint Louis, MO, USA). A Varioskan Flash plate reader with built-in injectors (Thermo Scientific, Waltham, MA, USA) was used. The final volume reaction mixture was 200 µL and the reaction was carried out at 37 °C in 75 mM phosphate buffer (pH 7.4). The tested compounds and Trolox standard were dissolved in DMSO to 10 mM and further diluted in phosphate buffer. The final concentrations were 0.1–1 µM for the tested compounds and 1–8 µM for Trolox standard. The blank was composed of 120 µL of FL, 60 µL of AAPH and 20 µL of phosphate buffer (pH = 7.4) and was added in each assay. The antioxidant (20 µL) and fluorescein (FL, 120 µL, final concentration of 70 nM) were incubated in a black 96-well microplate Nunc, purchazed from Thermo Fisher Scientific, Ecublens, Switzerland) for 15 min at 37 °C. Then, AAPH, 60 µL, final concentration of 12 mM) solution was added quickly using the built-in injector. […] The microplate was automatically shaken prior to each reading. All the experiments were made in triplicate and at least three different assays were performed for each sample.
Using MS Excel software, regression equations were extrapolated by plotting the net AUC against the antioxidant concentration. The ORAC values were then obtained by dividing the slope of the latter curve between the slope of the Trolox curve obtained in the same assay. Final ORAC values were expressed as Trolox equivalents. Data are expressed as mean ± SD.

[2] = biological target: T1, horse serum BuChE (eqBuChE) (Equus caballus, UniProt P81908); assay: Inhibition of eqBuChE (Ellman's assay); format: biochemical; settings: 10 µM compound
T1 construct: BuChE from horse serum (lyophilized powder, Sigma-Aldrich); purchased Sigma-Aldrich; host or cells: horse serum
Description: (§1) For the preliminary screening of the inhibitory potencies, Electrophorus electricus AChE (EeAChE) and horse serum BuChE (eqBuChE) were used following the Ellman’s assay.
(§2) Assessment of the inhibitory power of BCPOs was performed following the spectrophotometric method of Ellman using purified AChE from Electrophorus electricus (Type V-S, Sigma-Aldrich) or BuChE from horse serum (lyophilized powder, Sigma-Aldrich). Enzymes were first dissolved in 0.1 M phosphate buffer (pH 8.0) and then aliquoted in small vials for easy handling. Compounds stock solutions in DMSO (10 mM) were diluted when necessary with DMSO to prepare appropriate dilutions of each compound. The assay was performed in a final volume of 3 mL of a 0.1 M phosphate-buffered solution at pH 8.0, containing 5,5′-dithiobis-2-nitrobenzoic acid (DTNB, 2625 µL, 0.35 mM, final concentration), EeAChE (29 µL, 0.035 U/mL final concentration) or eqBuChE (60 µL, 0.05 U/mL final concentration) tested compound (3 µL, different concentrations) and 1% (w/v) Bovine Albumin Serum phosphate-buffered (pH 8.0) solution (BSA, 40 µL). The inhibition in comparison to control without compound was determined by pre-incubating this blend at room temperature with each compound at nine different concentrations for 10 min. Then, acetylthiocholine iodide (105 µL, 0.35 mM, final concentration) or butyrylthiocholine iodide (150 µL, 0.5 mM final concentration) was added and incubated for another 15 min at rt. […] Calculation of IC50 values was performed with GraphPad Prism 5. Each concentration was measured in triplicate. Data are expressed as mean ± SEM.

[3] = biological target: T2, Electrophorus electricus AChE (EeAChE) (Electrophorus electricus, UniProt O42275); assay: Inhibition of EeAChE (Ellman's assay); format: biochemical; settings: mean ± SEM, at least three independent experiments
T2 construct: purified AChE from Electrophorus electricus (Type V-S, Sigma-Aldrich); purchased Sigma-Aldrich Type V-S
Description: as §1, §2

[4] = biological target: T3, human recombinant AChE (hAChE) (Homo sapiens, UniProt P22303); assay: Kinetic characterization of hAChE inhibition (Lineweaver-Burk); format: biochemical
T3 construct: purchased Sigma-Aldrich
Description: To get insight into the mode of inhibition, the kinetic mechanism of hAChE inhibition by compound 3Bb was investigated through classical Lineweaver-Burk double reciprocal plots.
To estimate the type of inhibition of hAChE, we performed the same experimental protocol as reported for hAChE inhibition. […]. The stock solution of ATC (0.5 mM in a well) was prepared in demineralized water and diluted before use to obtain 0.4, 0.3, 0.2, 0.1 and 0.067 mM substrate solutions. The double reciprocal plots were analysed by a weighted least square procedure that assumed the variance of V to be constant. Each experiment was performed in triplicate. To confirm the mode of inhibition, Cornish-Bowden plots were obtained by plotting S/V (substrate/velocity ratio) versus the inhibitor concentration. Data analysis was performed with GraphPad Prism 5. Inhibition constant (Ki) values were determined by re-plotting slopes from the Lineweaver-Burk plot versus the inhibitor concentration where Ki was determined as the intersect of the line with the x-axis.

[5] = Solubility in DMSO (footnote remark); format: physicochemical; settings: DMSO at 10 mM and 1 mM

T2 sequence (O42275 24-633): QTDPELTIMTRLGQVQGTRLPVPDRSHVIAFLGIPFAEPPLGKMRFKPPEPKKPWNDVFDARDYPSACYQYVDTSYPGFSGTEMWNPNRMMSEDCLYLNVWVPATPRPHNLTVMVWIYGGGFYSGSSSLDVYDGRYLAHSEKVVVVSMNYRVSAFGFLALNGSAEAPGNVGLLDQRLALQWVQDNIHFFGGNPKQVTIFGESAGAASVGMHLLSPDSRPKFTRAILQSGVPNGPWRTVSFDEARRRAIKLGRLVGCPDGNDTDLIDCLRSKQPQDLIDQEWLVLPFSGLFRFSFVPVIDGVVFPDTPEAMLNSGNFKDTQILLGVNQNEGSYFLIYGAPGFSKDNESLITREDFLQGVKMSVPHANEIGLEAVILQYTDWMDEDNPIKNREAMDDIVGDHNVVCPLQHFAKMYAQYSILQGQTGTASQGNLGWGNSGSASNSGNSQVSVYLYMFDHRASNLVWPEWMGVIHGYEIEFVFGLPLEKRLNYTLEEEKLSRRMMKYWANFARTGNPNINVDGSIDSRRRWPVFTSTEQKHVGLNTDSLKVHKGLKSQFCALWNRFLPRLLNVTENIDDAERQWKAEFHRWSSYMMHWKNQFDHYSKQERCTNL
T1 sequence (P81908 whole entry): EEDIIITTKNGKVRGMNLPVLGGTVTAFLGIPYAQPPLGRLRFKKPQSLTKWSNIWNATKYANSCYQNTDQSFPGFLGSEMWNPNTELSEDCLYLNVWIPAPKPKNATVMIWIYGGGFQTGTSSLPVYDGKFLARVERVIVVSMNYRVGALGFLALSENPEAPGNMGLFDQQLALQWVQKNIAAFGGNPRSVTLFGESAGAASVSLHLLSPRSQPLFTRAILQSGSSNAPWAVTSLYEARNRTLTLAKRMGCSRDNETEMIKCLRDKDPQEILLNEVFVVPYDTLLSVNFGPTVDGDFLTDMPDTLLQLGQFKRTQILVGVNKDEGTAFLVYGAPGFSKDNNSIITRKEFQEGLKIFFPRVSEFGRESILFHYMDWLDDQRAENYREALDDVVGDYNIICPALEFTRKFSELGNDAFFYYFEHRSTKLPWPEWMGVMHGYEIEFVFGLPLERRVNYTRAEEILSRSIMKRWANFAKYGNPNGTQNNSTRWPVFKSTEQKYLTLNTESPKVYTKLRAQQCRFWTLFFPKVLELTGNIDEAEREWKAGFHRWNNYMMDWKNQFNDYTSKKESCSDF
T3 sequence (P22303 32-614): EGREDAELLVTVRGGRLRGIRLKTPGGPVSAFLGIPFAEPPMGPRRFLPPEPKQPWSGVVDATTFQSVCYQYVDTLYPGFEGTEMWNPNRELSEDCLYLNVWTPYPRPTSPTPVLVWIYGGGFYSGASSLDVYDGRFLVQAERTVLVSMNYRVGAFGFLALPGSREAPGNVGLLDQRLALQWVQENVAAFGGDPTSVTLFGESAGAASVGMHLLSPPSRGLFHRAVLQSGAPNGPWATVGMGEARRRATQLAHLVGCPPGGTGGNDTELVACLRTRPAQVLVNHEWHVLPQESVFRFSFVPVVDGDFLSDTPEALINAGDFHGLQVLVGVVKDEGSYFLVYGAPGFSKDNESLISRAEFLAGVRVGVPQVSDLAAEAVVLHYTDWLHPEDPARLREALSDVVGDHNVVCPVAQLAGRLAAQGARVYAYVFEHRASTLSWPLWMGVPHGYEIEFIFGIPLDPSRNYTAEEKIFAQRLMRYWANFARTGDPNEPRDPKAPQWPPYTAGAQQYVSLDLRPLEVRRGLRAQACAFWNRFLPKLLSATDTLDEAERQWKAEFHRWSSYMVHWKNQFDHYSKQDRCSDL

COc1cccc(C2c3c(nc4n(c3=O)CCC4)Oc3ccc4ccccc4c32)c1 (stereo not drawn) [3Ba, 14-(3′Methoxyphenyl)-10,11-dihydro-14H-benzo[5,6]chromeno[2,3-d]pyrrolo[1,2-a]pyrimidin-13(9H)-one]
ORAC [1]: 3.4 ± 0.2 Trolox equivalents
inhibition at 10 µM [2]: 51 ± 4%
IC50 [3]: 0.0607 ± 0.0045 µM

O=c1c2c(nc3n1CCCC3)Oc1ccc3ccccc3c1C2c1ccccc1 (stereo not drawn) [3Ab, 15-Phenyl-10,11,12,15-tetrahydro-9H-benzo[5,6]chromeno[2,3-d]pyrido[1,2-a]pyrimidin-14-one]
ORAC [1]: 2.3 ± 0.3 Trolox equivalents
inhibition at 10 µM [2]: 31.2 ± 1.8%
IC50 [3]: 0.0555 ± 0.0071 µM

COc1cccc(C2c3c(nc4n(c3=O)CCCC4)Oc3ccc4ccccc4c32)c1 (stereo not drawn) [3Bb, 15-(3′-Methoxyphenyl)-10,11,12,15-tetrahydro-9H-benzo[5,6]chromeno[2,3-d]pyrido[1,2-a]pyrimidin-14-one]
ORAC [1]: 4.7 Trolox equivalents and 4.7 ± 0.2 Trolox equivalents
mode of hAChE inhibition ([4]; Lineweaver-Burk double reciprocal plot): mixed-type inhibition; also recorded: mixed-type hAChE inhibitor
Ki ([4]; estimated from Lineweaver-Burk replots, read-out: Ki (dissociation constant for the enzyme-inhibitor complex)): 0.38 µM
inhibition at 10 µM [2]: 43 ± 1.9%
IC50 [3]: 0.0305 ± 0.0028 µM

Cc1ccc(C2c3c(nc4n(c3=O)CCCC4)Oc3ccc4ccccc4c32)cc1 (stereo not drawn) [3Cb, 15-(4′-Methylphenyl)-10,11,12,15-tetrahydro-9H-benzo[5,6]chromeno[2,3-d]pyrido[1,2-a]pyrimidin-14-one]
ORAC [1]: 3.9 ± 0.3 Trolox equivalents
inhibition at 10 µM [2]: 19 ± 2%
solubility in DMSO (in words) [5]: poor solubility in DMSO at 10 mM and 1 mM
IC50 [3]: 0.0559 ± 0.0127 µM

— PMC6273488, “Synthesis and Biological Evaluation of Benzochromenopyrimidinones as Cholinesterase Inhibitors and Potent Antioxidant, Non-Hepatotoxic Agents for Alzheimer’s Disease” (Molecules, 2016)
